The text below walks through data of US20100234372A1, “SUBSTITUTED 2-MERCAPTOQUINOLINE-3-CARBOXAMIDES AS KCNQ2/3 MODULATORS” (GRUNENTHAL GMBH, priority 2009, published 2010).

What is called EC50 is the concentration giving half of the maximal effect.

The test addresses T1, KCNQ2/3 channels (Homo sapiens, UniProt O43525+O43526).
T1 construct: expressed in transfected cells; host or cells: CHO-K1 cells
The test can be described thus: Fluorescence assay using a voltage-sensitive dye (fluorimetry). The class given is cell-based. The settings on record: for EC50: CHO-K1 cells expressing KCNQ2/3 channels; for Emax at 1 µM: 50 μM retigabine = 100%, CHO-K1 cells expressing KCNQ2/3, read-out: Fluorimetry % efficacy at 1 μM (50 μM retigabine = 100%). As to the method:
[…] CHO-K1 cells expressing KCNQ2/3 channels are cultivated adherently at 37° C., 5% CO2 and 95% humidity in cell culture bottles (e.g. 80 cm^2 TC flasks, Nunc) with DMEM-high glucose (Sigma Aldrich, D7777) including 10% FCS (PAN Biotech, e.g. 3302-P270521) or alternatively MEM Alpha Medium (1×, liquid, Invitrogen, #22571), 10% foetal calf serum (FCS) (Invitrogen, #10270-106, heat-inactivated) and the necessary selection antibiotics.
Before being seeded out for the measurements, the cells are washed with a 1×DPBS buffer without Ca^2+/Mg^2+ (e.g. Invitrogen, #14190-094) and detached from the bottom of the culture vessel by means of Accutase (PAA Laboratories, #L11-007) (incubation with Accutase for 15 min at 37° C.). The cell count then present is determined using a CASY™ cell counter (TCC model, Scharfe System) in order subsequently to apply 20,000 to 30,000 cells/well/100 μl of the described nutrient medium, depending on density optimisation for the individual cell line, to 96-well measuring plates of the Corning™ CeIIBIND™ type (flat clear-bottom black polystyrene microplates, #3340). Incubation is then carried out for one hour at room temperature, without gassing or adjusting the humidity, followed by incubation for 24 hours at 37° C., 5% CO2 and 95% humidity.
The voltage-sensitive fluorescent dye from the Membrane Potential Assay Kit (Red™ bulk format part R8123 for FLIPR, MDS Analytical Technologies™) is prepared by dissolving the contents of a vessel of Membrane Potential Assay Kit Red Component A in 200 ml of extracellular buffer (ES buffer, 120 mM NaCl, 1 mM KCl, 10 mM HEPES, 2 mM CaCl2, 2 mM MgCl2, 10 mM glucose; pH 7.4). After removal of the nutrient medium, the cells are washed with 200 μl of ES buffer, then covered with a layer of 100 μl of the dye solution prepared above and incubated for 45 min at room temperature with exclusion of light.
The fluorescence measurements are carried out with a BMG Labtech FLUOstar™, BMG Labtech NOVOstar™ or BMG Labtech POLARstar™ instrument (525 nm excitation, 560 nm emission, bottom-read mode). After incubation of the dye, 50 μl of the substances to be tested in the desired concentrations, or 50 μl of ES buffer for control purposes, are introduced into separate cavities of the measuring plate and incubated for 30 min at room temperature whilst being shielded from light. The fluorescence intensity of the dye is then measured for 5 min and the fluorescence value F1 of each well is thus determined at a given, constant time. 15 μl of a […] KCl solution ([…]) are then added to each well. The change in fluorescence is subsequently measured until all relevant measured values have been obtained (mainly 5-30 min). At a given time after KCl application, a fluorescence value F2 is determined, in this case at the time of the fluorescence peak.
For calculation, the fluorescence intensity F2 is compared with the fluorescence intensity F1, and the agonistic activity of the target compound on the potassium channel is determined therefrom. F2 and F1 are calculated as follows: […]
is determined by adding to the reaction batch only the buffer solution instead of the substance to be tested, determining the value F1K of the fluorescence intensity, adding the potassium ions as described above and measuring a value F2K of the fluorescence intensity. Then F2K and F1K are calculated as follows: […]
Calculations of EC50 values are carried out with the aid of Prism v4.0 software (GraphPad Software™).

`CCSc1nc2cc(F)ccc2c(C)c1C(=O)NCc1cccc(F)c1` [compound 105]: a half-maximal effect (EC50) was put at 248 nM and the Emax at 1 µM came out at 140%.

Take `Cc1ccc(CCCSc2nc3ccccc3cc2C(=O)NCc2cccs2)cc1` [compound 20]: the Emax at 1 µM amounted to 64%.

`CCSc1nc2cc(C(F)(F)F)ccc2c(C)c1C(=O)NCc1ccc(C)cc1` [compound 83]: the response was half-maximal at 242 nM (EC50) and the Emax at 1 µM came out at 130%.

Regarding `O=C(NCc1cccs1)c1cc2c(C(F)(F)F)cccc2nc1SCCS(=O)(=O)c1ccccc1` [compound 10], the Emax at 1 µM is 9%.

Consider `CCSc1nc2cc(N(C)C)ccc2c(C)c1C(=O)NCc1ccc(F)cc1` [compound 133], for which the Emax at 1 µM amounted to 15%.

With `CCSc1nc2cc(F)c(F)cc2c(C)c1C(=O)NCc1cccc(F)c1` [compound 118], the EC50 was found to be 147 nM and the Emax at 1 µM was found to be 149%.

Consider `CCSc1nc2cc(C(F)(F)F)ccc2c(C)c1C(=O)NCc1ccccc1F` [compound 75], for which the midpoint of the response, the EC50, lay at 71 nM and the Emax at 1 µM stood at 88%.

As for `Cc1c(C(=O)NCc2cccc(F)c2)c(SC(C)C)nc2cc(C(F)(F)F)ccc12` [compound 47], the midpoint of the response, the EC50, lay at 73 nM and the Emax at 1 µM stood at 152%.

In the case of `CCSc1nc2cc(C(F)(F)F)ccc2c(C)c1C(=O)NCc1ccccc1Cl` [compound 78], the Emax at 1 µM amounted to 33%.

In the case of `O=C(NCc1cccs1)c1cc2ccccc2nc1SCCCc1ccc(F)cc1` [compound 6], the EC50 is 1220 nM and the Emax at 1 µM was determined as 111%.

Consider `CCSc1nc2cc(C(F)(F)F)ccc2c(C)c1C(=O)NCCc1cccs1` [compound 72], for which it took 732 nM to reach a half-maximal effect (EC50) and the Emax at 1 µM stood at 59%.

Regarding `CCSc1nc2cc(C(C)(C)C)ccc2c(C)c1C(=O)NCc1ccc(F)cc1` [compound 96], the EC50 stood at 808 nM and the Emax at 1 µM came to 101%.

Regarding `CCSc1nc2ccccc2c(C)c1C(=O)NCc1cccc(F)c1` [compound 92], the EC50 turned out to be 950 nM and the Emax at 1 µM is 65%.

In the case of `CCSc1nc2c(C(F)(F)F)cccc2c(C)c1C(=O)NCc1cccc(F)c1` [compound 136], the EC50 came to 227 nM and the Emax at 1 µM was 164%.

As to `O=C(NCc1cccs1)c1cc2ccccc2nc1SCCCC1CCCCC1` [compound 3], the midpoint of the response, the EC50, lay at 1930 nM and the Emax at 1 µM was 77%.

Take `CCCCCSc1nc2ccc(C(F)(F)F)cc2cc1C(=O)NCc1cccs1` [compound 11, 2-(Pentylthio)-N-(2-thienylmethyl)-6-(trifluoromethyl)-3-quinoline carboxamide]: the Emax at 1 µM amounted to 41%.

Consider `CCSc1nc2cc(OC)ccc2c(C)c1C(=O)NCc1ccc(F)cc1` [compound 98], for which a half-maximal response (EC50) required 404 nM and the Emax at 1 µM was 70%.

Molecule `CCSc1nc2ccccc2cc1C(=O)NCc1cccs1` [compound 7, 2-(Ethylthio)-N-(2-thienylmethyl)-3-quinoline carboxamide] showed an EC50 of 1350 nM.

For the molecule `CCCCCSc1nc2ccccc2cc1C(=O)NCc1cccs1` [compound 1, 2-(Pentylthio)-N-(2-thienylmethyl)-3-quinoline carboxamide], a half-maximal response (EC50) required 744 nM and the Emax at 1 µM came out at 143%.

With `CSc1nc2cc(C(F)(F)F)ccc2c(C)c1C(=O)NCc1cccs1` [compound 88], the EC50 is 212 nM and the Emax at 1 µM is 154%.

Consider `CCSc1nc2cc(C(F)(F)F)ccc2c(C)c1C(=O)NCc1nccs1` [compound 44], for which the EC50 came to 587 nM and the Emax at 1 µM came to 169%.

Consider `CCSc1nc2cc(C(F)(F)F)ccc2c(C)c1C(=O)NCc1ccc(OC)cc1` [compound 86], for which the EC50 was 565 nM and the Emax at 1 µM was found to be 108%.

Regarding `CCSc1nc2cc(C(F)(F)F)ccc2c(C)c1C(=O)NCc1cc(F)cc(F)c1` [compound 87], it took 144 nM to reach a half-maximal effect (EC50) and the Emax at 1 µM came to 159%.

As for `CCSc1nc2cc(C(F)(F)F)ccc2c(C)c1C(=O)NCCCC(C)C` [compound 57], the EC50 turned out to be 150 nM and the Emax at 1 µM came out at 205%.

As to `CCSc1nc2c(OC)cccc2c(C)c1C(=O)NCc1cccc(F)c1` [compound 138], the EC50 came to 2240 nM and the Emax at 1 µM worked out at 91%.

Turning to `CCSc1nc2c(O)cccc2c(C)c1C(=O)NCc1cccc(F)c1` [compound 140], it took 1150 nM to reach a half-maximal effect (EC50) and the Emax at 1 µM was found to be 101%.

For the molecule `CCSc1nc2cc(C(F)(F)F)ccc2c(C)c1C(=O)NCCCC1CCCC1` [compound 54], the response was half-maximal at 162 nM (EC50) and the Emax at 1 µM turned out to be 229%.

On to `CCSc1nc2cc(C(F)(F)F)ccc2c(Cl)c1C(=O)NCc1cccc(F)c1` [compound 122, 4-Chloro-2-ethylsulfanyl-N-[(3-fluorophenyl)-methyl]-7-(trifluoromethyl)-quinoline-3-carboxamide], for which a half-maximal effect (EC50) was put at 65 nM and the Emax at 1 µM is 171%.

`CCSc1nc2cc(C(F)(F)F)ccc2c(C)c1C(=O)NCc1ccc(C)s1` [compound 69]: a half-maximal response (EC50) required 858 nM and the Emax at 1 µM amounted to 123%.

Consider `CCSc1nc2cc(C(F)(F)F)ccc2c(C)c1C(=O)NCC1CCCCCC1` [compound 29], for which it took 367 nM to reach a half-maximal effect (EC50) and the Emax at 1 µM came to 86%.

`CSc1nc2cc(C(F)(F)F)ccc2c(C)c1C(=O)NCc1ccc(F)cc1` [compound 115]: the EC50 stood at 136 nM and the Emax at 1 µM is 150%.

As to `CCSc1nc2cc(C(F)(F)F)ccc2c(C)c1C(=O)NCc1ccc(F)cc1F` [compound 32], the EC50 came out at 59 nM and the Emax at 1 µM was 70%.

In the case of `CCSc1nc2ccc(OC)cc2c(C)c1C(=O)NCc1ccc(F)cc1` [compound 102], the Emax at 1 µM is 14%.

In the case of `CCSc1nc2cc(C(F)(F)F)ccc2c(C)c1C(=O)NCc1cc(F)c(F)cc1F` [compound 34], a half-maximal effect (EC50) was put at 98 nM and the Emax at 1 µM was 72%.

In the case of `CCSc1nc2cc(C)ccc2c(C)c1C(=O)NCc1ccc(F)cc1` [compound 108], a half-maximal effect (EC50) was put at 509 nM and the Emax at 1 µM is 149%.

For `Cc1c(C(=O)NCc2cccc(F)c2)c(SC(C)(C)C)nc2cc(C(F)(F)F)ccc12` [compound 93], the response was half-maximal at 88 nM (EC50) and the Emax at 1 µM was 157%.

`COC(=O)CCSc1nc2ccccc2cc1C(=O)NCc1cccs1` [compound 2, 3-{[3-[Oxo-(2-thienylmethylamino)methyl]-2-quinolyl]thio}propanoic acid methyl ester]: the Emax at 1 µM turned out to be 26%.

For the molecule `CCSc1nc2cc(C(F)(F)F)ccc2c(C)c1C(=O)NCC1CC2CCC1C2` (centres unmarked) [compound 73], the Emax at 1 µM came out at 25%.

As for `CCSc1nc2cc(C(F)(F)F)ccc2c(C)c1C(=O)NCCC1CCCC1` [compound 53], the EC50 came out at 256 nM and the Emax at 1 µM amounted to 73%.

In the case of `CCSc1nc2cc(C(F)(F)F)ccc2c(C)c1C(=O)NCc1cccc(OC)c1` [compound 85], a half-maximal effect (EC50) was put at 413 nM and the Emax at 1 µM came to 89%.

Turning to `CCSc1nc2ccc(OC)cc2c(C)c1C(=O)NCc1cccc(F)c1` [compound 101], the Emax at 1 µM came to 17%.

As to `CCSc1nc2cc(C(F)(F)F)ccc2c(C)c1C(=O)NCC(C)(C)C` [compound 28], the Emax at 1 µM amounted to 47%.

For the molecule `Cc1ccc(S(=O)(=O)CCSc2nc3ccccc3cc2C(=O)NCc2cccs2)cc1` [compound 17], the Emax at 1 µM amounted to 77%.
